Usually MIC stands for the least concentration at which growth counts as inhibited. Usually MIC50 stands for an inhibitory concentration at the 50% level, which refers to growth in some studies and to a panel of isolates in others. Read a high MIC50 as weaker potency.

What all share (format): functional
In test [1] the test system is Mycobacterium tuberculosis. Kind of test: Antitubercular activity against extensively drug resistant Mycobacterium tuberculosis clinical isolate 11 by resazurin microtitre assay. In general terms: Alamar Blue is a resazurin reagent that responds to reducing activity.
Test [2] deals with Mycobacterium tuberculosis. In words: Antitubercular activity against multidrug resistant Mycobacterium tuberculosis clinical isolate 3 by resazurin microtitre assay.
The subject of test [3] is Mycobacterium tuberculosis. Kind of test: Antitubercular activity against extensively drug resistant Mycobacterium tuberculosis clinical isolate 1 by resazurin microtitre assay.
Test [4] has as its system Mycobacterium tuberculosis. In words: Antitubercular activity against multidrug resistant Mycobacterium tuberculosis clinical isolate 2 by resazurin microtitre assay.
The subject of test [5] is Mycobacterium tuberculosis. Kind of test: Antitubercular activity against extensively drug resistant Mycobacterium tuberculosis clinical isolate 8 by resazurin microtitre assay.
Test [6] concerns Mycobacterium tuberculosis. Kind of test: Antitubercular activity against extensively drug resistant Mycobacterium tuberculosis clinical isolate 5 by resazurin microtitre assay.
Test [7] deals with Mycobacterium tuberculosis. In words: Antitubercular activity against multidrug resistant Mycobacterium tuberculosis clinical isolate 10 by resazurin microtitre assay.
In test [8] the test system is Mycobacterium tuberculosis. In words: Antitubercular activity against multidrug resistant Mycobacterium tuberculosis clinical isolate 7 by resazurin microtitre assay.
The subject of test [9] is Mycobacterium tuberculosis. Kind of test: Antitubercular activity against extensively drug resistant Mycobacterium tuberculosis KMRC 0 0203-0 0197 by resazurin microtitre assay.
Test [10] relates to Mycobacterium tuberculosis. Kind of test: Antitubercular activity against extensively drug resistant Mycobacterium tuberculosis clinical isolate 4 by resazurin microtitre assay.
Test [11] concerns Mycobacterium tuberculosis. Kind of test: Antitubercular activity against multidrug resistant Mycobacterium tuberculosis clinical isolate 5 by resazurin microtitre assay.
Test [12] has as its system Mycobacterium tuberculosis. Kind of test: Antitubercular activity against extensively drug resistant Mycobacterium tuberculosis clinical isolate 3 by resazurin microtitre assay.
Test [13] relates to Mycobacterium tuberculosis. Kind of test: Antitubercular activity against extensively drug resistant Mycobacterium tuberculosis clinical isolate 2 by resazurin microtitre assay.
Test [14] deals with Mycobacterium tuberculosis. Kind of test: Antitubercular activity against multidrug resistant Mycobacterium tuberculosis clinical isolate 6 by resazurin microtitre assay.
Test [15] deals with Mycobacterium tuberculosis. Kind of test: Antitubercular activity against extensively drug resistant Mycobacterium tuberculosis clinical isolate 6 by resazurin microtitre assay.
Test [16] has as its system Mycobacterium tuberculosis. Kind of test: Antitubercular activity against extensively drug resistant Mycobacterium tuberculosis clinical isolate 9 by resazurin microtitre assay.
Test [17] deals with Mycobacterium tuberculosis. In words: Antitubercular activity against multidrug resistant Mycobacterium tuberculosis clinical isolate 1 by resazurin microtitre assay.
Test [18] has as its system Mycobacterium tuberculosis. In words: Antitubercular activity against multidrug resistant Mycobacterium tuberculosis clinical isolate 11 by resazurin microtitre assay.
Test [19] has as its system Mycobacterium tuberculosis. Kind of test: Antitubercular activity against extensively drug resistant Mycobacterium tuberculosis clinical isolate 10 by resazurin microtitre assay.
Test [20] relates to Mycobacterium tuberculosis. Kind of test: Antitubercular activity against multidrug resistant Mycobacterium tuberculosis clinical isolate 8 by resazurin microtitre assay.
Test [21] concerns Mycobacterium tuberculosis. In words: Antitubercular activity against multidrug resistant Mycobacterium tuberculosis clinical isolate 4 by resazurin microtitre assay.
For test [22], the system named is Mycobacterium tuberculosis. Kind of test: Antitubercular activity against multidrug resistant Mycobacterium tuberculosis clinical isolate 9 by resazurin microtitre assay.
Test [23] relates to Mycobacterium tuberculosis. Kind of test: Antitubercular activity against extensively drug resistant Mycobacterium tuberculosis clinical isolate 7 by resazurin microtitre assay.
The test system of test [24] is Mycobacterium tuberculosis. Kind of test: Antimycobacterial activity against multidrug-resistant Mycobacterium tuberculosis H37Rv assessed as inhibition of bacterial growth by alamar blue assay.
For test [25], the system named is Mycobacterium tuberculosis. In words: Antimycobacterial activity against extensively-resistant Mycobacterium tuberculosis H37Rv assessed as inhibition of bacterial growth by alamar blue assay.
Test [26] has as its system Mycobacterium tuberculosis. Kind of test: Antimycobacterial activity against isoniazid, rifampicin, ethambutol, pyrazinamide, capreomycin, and ethionamide resistant Mycobacterium tuberculosis clinical isolate incubated for 7 days by resazurin microtitre assay. To be noted: 168 h, time 7 day.
For test [27], the system named is Mycobacterium tuberculosis. Kind of test: Antimycobacterial activity against isoniazid, rifampicin, ethambutol, pyrazinamide, streptomycin, capreomycin, amikacin, kanamycin, ofloxacin, and ethionamide resistant Mycobacterium tuberculosis clinical isolate incubated for 7 days by resazurin microtitre assay. Particulars: 168 h, time 7 day.
Test [28] has as its system Mycobacterium tuberculosis. In words: Antimycobacterial activity against isoniazid resistant Mycobacterium tuberculosis clinical isolate incubated for 7 days by resazurin microtitre assay. To be noted: 168 h, time 7 day.

Values after ≈ are worked out from the molar mass of the structure shown. Some results are limits rather than exact numbers.

Take `CCN(CC)CCOc1c(C(=O)OC)c2c3c(oc2c2ccccc12)C(=O)c1ccccc1C3=O`: the MIC in test [1] was found to be 0.19 µg/mL (≈ 0.403 µM); in [2] it was 0.19 µg/mL (≈ 0.403 µM); in test [3] it was 0.02 µg/mL (≈ 0.0424 µM); in test [4], 0.02 µg/mL (≈ 0.0424 µM); in test [5], 0.19 µg/mL (≈ 0.403 µM); in test [6], 0.19 µg/mL (≈ 0.403 µM). Further, the MIC in test [7] amounted to 0.02 µg/mL (≈ 0.0424 µM); in [8] it was 0.02 µg/mL (≈ 0.0424 µM); in [10], 0.19 µg/mL (≈ 0.403 µM); in test [11], 0.19 µg/mL (≈ 0.403 µM); in test [12] it was 0.19 µg/mL (≈ 0.403 µM); in test [13], 0.02 µg/mL (≈ 0.0424 µM). Besides, the MIC was 0.02 µg/mL (≈ 0.0424 µM) in [14]; 0.19 µg/mL (≈ 0.403 µM) in test [15]; 0.19 µg/mL (≈ 0.403 µM) in [16]; 0.19 µg/mL (≈ 0.403 µM) in test [17]; 0.39 µg/mL (≈ 0.827 µM) in test [18]; 0.02 µg/mL (≈ 0.0424 µM) in test [19]. The MIC was determined as 0.39 µg/mL (≈ 0.827 µM) in test [20], 0.19 µg/mL (≈ 0.403 µM) in [21], 0.02 µg/mL (≈ 0.0424 µM) in test [22] and 0.19 µg/mL (≈ 0.403 µM) in test [23]. The molecule also came in with an MIC50 in [9] of 0.19 µg/mL (≈ 0.403 µM).

On to `Cc1cc(O)n2nc(Nc3ccc(Cl)c(Cl)c3)c(C(N)=O)c2n1`, for which the MIC in test [24] was 12.5 µg/mL (≈ 35.5 µM); in test [25], 50 µg/mL (≈ 142 µM).

For the molecule `Cc1ccc(NC(=O)c2c(Nc3ccc(Cl)cc3)nn3c(O)cc(C)nc23)cc1`, the MIC in test [24] is 6.25 µg/mL (≈ 15.3 µM); in test [25] it was over 100 µg/mL.

Consider `CC(=O)N1/C(=C/c2ccc(-c3ccc(C)cc3)cc2)C(=O)c2ccccc21`, for which the MIC in test [26], in [27] and in test [28] was 17.7 µM (≈ 6.26 µg/mL) each time.

Take `CC(=O)N1/C(=C/c2ccc(-c3ccccc3)cc2)C(=O)c2ccccc21`: the MIC in test [26], in test [27] and in test [28] was 12.3 µM (≈ 4.17 µg/mL) in each case.

As to `COc1ccccc1NC(=O)c1c(Nc2cccc(C)c2)nn2c(O)cc(C)nc12`, the figures for the MIC in test [24] and in test [25] were 6.25 µg/mL (≈ 15.5 µM) and 12.5 µg/mL (≈ 31 µM), respectively.

Regarding `CC(=O)N1/C(=C/c2ccc(Br)cc2)C(=O)c2ccccc21`, the MIC in test [26] was determined as 9.15 µM (≈ 3.13 µg/mL); in [27], 15.2 µM (≈ 5.2 µg/mL); in test [28] it was 15.2 µM (≈ 5.2 µg/mL).

The values above are taken from ChEMBL document CHEMBL5244273, “Tuberculosis: An Overview of the Immunogenic Response, Disease Progression, and Medicinal Chemistry Efforts in the Last Decade toward the Development of Potential Drugs for Extensively Drug-Resistant Tuberculosis Strains” (J Med Chem, 2021).
